Where two headings read alike, the source gives them in different places.
Assays:
Acute toxicity in mice = conditions: in vivo, mouse
Method: (§1) (1) Acute toxicity and tonic convulsion in hind paw:
(§2) The acute toxicity and tonic convulsion occured by stimulus by hand touch were determined in the following manner to give the results shown in Table 2.
(a) Acute toxicity in mice:
38 Groups, each consisting of 5 mice (male dd-strain, weight -- 18 to 24 g), were used for the test and control groups. The compounds shown in Table 2 were administered orally or intraperitoneally to the mice. After one week, the survival ratio was measured.

[1] = tested on: hyperlipemia induced by Triton; assay: Cholesterol-lowering activity on hyperlipemia induced by Triton in mice; format: in vivo, mice (male dd-strain); conditions: Mus musculus, read-out: Ratio of the reduction of cholesterol
Method: (2) Cholesterol-Lowering activity on hyperlipemia induced by Triton in mice:
38 Groups, each consisting of 9 mice (male dd-strain, weight -- 19 to 21 g), were used for the test and control groups. […] Immediately after the administration and also after 20 hours from the administration of Triton, the mice were orally administered with 100 mg/kg of the compound shown in Table 3. 43 hours after the administration of Triton, the blood samples were collected by decapitation and then the corpuscle was removed by centrifugation. Cholesterol in the serum was determined by Zurkowski's method modified by Shibata (color of the test solution was developed by using sulfoalicyclic acid, acetic acid and sulfuric acid and the optical density of the solution was determined at 620 mμ.

Mouse = assay: Tonic convulsion of hind paw of mice (stimulus by hand touch); format: in vivo, mice (male dd-strain); conditions: oral, D = 1000 mg/kg, 30 to 360 minutes
Method: as §1, §2
(c) Tonic convulsion of hind paw of mice:
38 Groups, each consisting of 5 mice (male dd-strain, weight -- 18 to 24 g), were used for the test and control groups. The compounds shown in Table 2 were orally administered to the mice. At 30, 60, 120, 180 and 360 minutes after the administration, stimulus by hand touch was given to the mice and the tonic convulsion was observed.

[2] = tested on: hyperlipemia induced by Triton; assay: Effect on hyperlipemia induced by Triton in rats: activity in the increasing phase; format: in vivo, rats (male Wistar strain); conditions: for activity in the developing phase (in words): Clofibrate, Compounds 1 and 2 compared with each other; for Cholesterol / Cholesterol, Ratio of decrease / Triglyceride / Triglyceride, Ratio of decrease: serum, increasing phase, 200 mg/kg oral, 20 hours
Method: (§3) (4) Effect on hyperlipemia induced by Triton in rats:
(i) Activity in the increasing phase:
(§4) 3 Groups, each consisting of 9 rats (male Wistar strain, weight -- 200 to 240 g) fasted for 24 hours were used for this test. Each rat was administered intravenously with 200 mg/kg of Triton (WR-1339), followed by oral administration of 200 mg/kg of the compounds shown in Table 6. After 20 hours from the administration, the blood samples were collected by decapitation. Cholesterol and triglyceride in the serum were determined in a similar manner to that used in (2, ii) to give the results shown in Table 6.

Cholesterol in the serum = assay: Cholesterol-lowering activity on normal rats of Wistar strain (serum cholesterol, liver weight); format: in vivo, rats (male Wistar strain); conditions: 0.3% in diet; for B - Ratio of decrease of liver weight: continuous administration for 4 days; for C - Ratio of decrease of cholesterol / D - Ratio of increase of liver weight: continuous administration for 14 days
Method: (3) Cholesteral-lowering activity on normal rats of Wistar strain:
(i) 22 Groups, each consisting of 5 rats (male Wistar strain, weight -- 150 to 180 g) were used for the test and control groups. After this, the blood samples were collected by decapitation and then the corpuscle was removed by centrifugation. Cholesterol in the serum was determined by Zurkowski's method modified by Shibata and also the liver was excised and weighed. The results are shown in Table 4 wherein the ratio of 100% denotes the amount of chloresterol and the weight of the liver of normal rats fed with powdery diet without the addition of the compound.

Acute toxicity in rats = conditions: rat, in vivo
Method: as §1, §2
(b) Acute toxicity in rats:
28 Groups, each consisting of 5 rats (male Wistar strain, weight -- 200 g), were used for the test and control groups. The compounds shown in Table 2 were orally administered to the rats. After one week, the survival ratio was measured.

[3] = tested on: Triglyceride, phospholipid and free fatty acid in the serum; assay: Determination of triglyceride, phospholipid and free fatty acid in the serum of normal rats; format: in vivo, rats (Wistar strain); conditions: for A - Ratio of decrease of triglyceride / B - Ratio of decrease of phospholipid / C - Ratio of decrease of free fatty acid: continuous administration for 4 days
Method: (ii) Determination of triglyceride, phospholipid and free fatty acid in the serum of normal rats of Wistar strain: Clofibrate and Compounds 1 and 2 were tested in a similar manner to that described in (i). Triglyceride, phospholipid and free fatty acid in the serum were determined in the following manner to give the results shown in Table 5. (a) Determination of triglyceride: Triglyceride was determined by acetylacetone method [Kazuo Matsumiya et al "Rinsho Byori", Vol. 18, page 383 (1970), Japan] in the following manner. Isopropyl alcohol was added to the test solution of the serum to extract triglyceride which was then saponified with potassium hydroxide to give glycerol. The glycerol was oxidized by using sodium salt of methaperiodic acid to convert it into formaldehyde. Color of the test solution was developed by acetylacetone and the optical density at 420 mμ was determined. (b) Determination of phospholipid: "Phospholipid Test Wako", a reagent available from Wako Junyaku K.K., Japan, was used for the determination of phospholipid in the following manner according to a similar manner to that described in "Rinsho Byori", Vol. 17, page 389 (1969), Japan, by Atsuo […] et al. Trichloroacetic acid was added to the serum to give precipitates of lipoprotein which were then added with sulfuric acid and potassium permanganate to form phosphoric acid. Color of the test solution was developed by ammonium molybdate and the optical density was determined at 660 mμ. (c) Determination of free fatty acid: Laurell's method [CLin. Chim. Acta. 16, 57 (1967)] was used for determination in the following manner. […] After shaking for 5 minutes, the solution was centrifuged. 5 Ml of the supernatant was put into another tube and was added with 2 ml of copper reagent. […] The optical density at 550 mμ was determined.

[4] = tested on: cholesterol and triglyceride in the serum; assay: Lipid lowering activity in cynomolgus monkeys; format: in vivo, cynomolgus monkeys (male, born in Malaysia); conditions: 100 mg/kg/day oral, 10 days; for Decrease Ratio of Cholesterol / Decrease Ratio of Triglyceride: average of 3 times cross-over
Method: (6) Lipid lowering activity in cynomolgus monkeys:
6 cynomolgus monkeys (male, born in Malaysia, weight -- 2.5 to 3.9 kg) were used for this test. All monkies were breeded in individual cages at a temperature from 23° to 25° C. and fed with a solid diet for monkey (available from Oriental Yeast K.K., Japan) and sweet potatoes every morning and with apples and bananas from time to time. The monkeys were divided into 3 groups, each consisting of 2 monkeys, to orally and compulsively administer the test compound in an amount of 100 mg/kg/day once in every morning for 10 days. At 11 days after the first administration, before feeding the diet in early morning blood samples were collected from the saphenae of the monkeys to determine cholesterol and triglyceride in a similar manner to that described above. The ratio of lowering cholesterol (RCL) or triglyceride (RLT) was calculated by the following formula. [formula] wherein A is the average amount of the cholesterol or triglyceride in the serum before administration, and B is the corresponding amont after administration for 10 days.
After an interval of 5 weeks, another compound was administered to determine cholesterol or triglyceride in a similar manner to that described above. After a further interval of 5 weeks, a similar procedure was repeated by using another compound to determine cholesterol or triglyceride.

[5] = tested on: glycerol induced hyperlipemia; assay: Lipid lowering effects on glycerol induced hyperlipemia in rats; format: in vivo, rats (male Wistar strain); conditions: 0.25% in diet; for Cholesterol / Cholesterol, Ratio of decrease / Triglyceride / Triglyceride, Ratio of decrease: serum, 15% glycerol in water
Method: (5) Lipid lowering effects on glycerol induced hyperlipemia in rats: The test was carried out in a similar method to that by […] et al [Life Science, 3, 1021 (1964)] . A group consisting of 10 rats (male Wistar strain, weight - 190 to 210 g) was used for each of the test and control groups. Hyperlipemia occurred by feeding the rats ad libitum with water containing 15% (by volume) of glycerol. […] After this, the blood samples were collected by decapitation and the serum was separated by centrifugation.

[6] = tested on: hyperlipemia induced by Triton; assay: Effect on hyperlipemia induced by Triton in rats: activity in the decreasing phase; format: in vivo, rats (male Wistar strain); conditions: for Cholesterol / Cholesterol, Ratio of decrease / Triglyceride / Triglyceride, Ratio of decrease: serum, decreasing phase, 200 mg/kg oral 25 hours after Triton, sampled at 30 hours
Method: as §3, §4
(II) Activity in the decreasing phase:
Hyperlipemia occurred by administering Triton (WR-1339) in a similar manner to that in (i). After 25 hours, 200 mg/kg of the compounds were orally administered to the rats. After 30 hours from the injection of Triton, the blood samples were collected by decapitation.

[7] = oral administration, after one week, read-out: Acute Toxicity (LD50), A

| Compound | LD50 at 168 h (Acute toxicity in mice; [7]) [mg/kg] | inhibition in vivo at 100 mg/kg ([1]; po, 43 h) [%] | Tonic convulsion (Mouse) | activity in the developing phase (in words) [2] | Cholesterol [2] [mg/dL] | Cholesterol, Ratio of decrease [2] [%] | Triglyceride [2] [mg/dL] | Triglyceride, Ratio of decrease [2] [%] | B - Ratio of decrease of liver weight (Cholesterol in the serum) [%] | C - Ratio of decrease of cholesterol (Cholesterol in the serum) [%] | D - Ratio of increase of liver weight (Cholesterol in the serum) [%] | A - Ratio of decrease of triglyceride [3] [%] | B - Ratio of decrease of phospholipid [3] [%] | C - Ratio of decrease of free fatty acid [3] [%] | cholesterol-lowering activity (in words) [4] | Decrease Ratio of Cholesterol [4] [%] | Decrease Ratio of Triglyceride [4] [%] | activity on lowering triglyceride and cholesterol (in words) [5] | Cholesterol [5] [mg/dL] | Cholesterol, Ratio of decrease [5] [%] | further results |
| --- | --- | --- | --- | --- | --- | --- | --- | --- | --- | --- | --- | --- | --- | --- | --- | --- | --- | --- | --- | --- | --- |
| COC(=O)[C@H](Cc1ccccc1)NC(=O)SCc1ccccc1C [Compound 21, N-(2-methylbenzylthiocarbonyl)-L-phenylalanine methylester] | > 1000 | 43 | + |  |  |  |  |  |  |  |  |  |  |  |  |  |  |  |  |  |  |
| CCOC(=O)C(C)(C)Oc1ccc(Cl)cc1 [Clofibrate, reference compound] |  |  |  | substantially equal | 203 | 20.8 | 856 | 36.0 | 40.1 | 32.3 | 60.1 | 50.1 | 25.0 | 26.7 | have a cholesterol-lowering activity | 6.7 | 9.0 | have an activity on lowering triglyceride and cholesterol | 39.1 | 30.6 | LD50 at 168 h (Acute toxicity in rats; po): > 200 mg/kg; LD50 at 168 h (Acute toxicity in mice; ip): 1620 mg/kg; LD50 at 168 h (Acute toxicity in mice; po): 2100 mg/kg; inhibition in vivo at 100 mg/kg ([1]; 100 mg/kg oral, twice (0 and 20 hours after Triton 600 mg/kg i.v.), serum at 43 hours): 40%; Triglyceride [5]: 129 mg/dL; Triglyceride, Ratio of decrease [5]: 74.0%; Cholesterol [6]: 138 mg/dL; Cholesterol, Ratio of decrease [6]: 7.5%; Triglyceride [6]: 401 mg/dL; Triglyceride, Ratio of decrease [6]: -15.6% |
| Cc1cccc(CSC(=O)N[C@@H](Cc2ccccc2)C(=O)O)c1 [Compound 22, N-(3-methylbenzylthiocarbonyl)-L-phenylalanine] | > 1000 | 46 | + |  |  |  |  |  |  |  |  |  |  |  |  |  |  |  |  |  |  |
| COC(=O)[C@H](Cc1ccccc1)NC(=O)SCc1ccc(C)cc1 [Compound 2, N-(4-methylbenzylthiocarbonyl)-L-phenylalanine methylester] | > 4000 | 38 |  | substantially equal | 202 | 21.3 | 729 | 45.5 | 8.2 | 17.5 | 3.9 | 2.1 | 10.9 | 21.8 | have a cholesterol-lowering activity | 9.7 | -7.3 | have an activity on lowering triglyceride and cholesterol | 47.5 | 15.7 | LD50 at 168 h (Acute toxicity in rats; oral administration, after one week, read-out: Acute Toxicity (LD50), C): > 900 mg/kg; LD50 at 168 h (Acute toxicity in mice; ip, intraperitoneal administration, after one week, read-out: Acute Toxicity (LD50), B): > 100 mg/kg; lowering activity on lipids other than cholesterol (in words) ([3]; normal rats, 4 days): have a lowering activity on lipids other than cholesterol; Triglyceride [5]: 261 mg/dL; Triglyceride, Ratio of decrease [5]: 41.3%; activity in the decreasing phase (in words) ([6]; compared with Clofibrate): superior to that of Clofibrate; Cholesterol [6]: 116 mg/dL; Cholesterol, Ratio of decrease [6]: 22.2%; Triglyceride [6]: 205 mg/dL; Triglyceride, Ratio of decrease [6]: 40.9% |
| Cc1ccccc1CSC(=O)N[C@@H](Cc1ccccc1)C(=O)O [Compound 20, N-(2-methylbenzylthiocarbonyl)-L-phenylalanine] | > 1000 | 47 | + |  |  |  |  |  |  |  |  |  |  |  |  |  |  |  |  |  |  |

Reference: US4138485A, “Phenylalanine derivatives” (Kyowa Hakko Kogyo Kabushiki Kaisha, priority 1976, dated 1979)
